Laboratory results reported in patent US11065234B2, “Estrogen receptor modulators” (Recurium IP Holdings, LLC, priority 2016, dated 2021).

Experiments:
MCF7 = experiment: Breast Cancer Cell Proliferation Assay (MCF-7); type: cell-based; conditions: Homo sapiens, 120 h; MCF7 cells, 5 days of compound exposure, Cell Titer-Glo
Description: Breast Cancer Cell Proliferation Assay (MCF-7)
MCF7 was expanded and maintained in the medium (Phenol red free DMEM/F12 (Hyclone SH30272.01) NEAA (Gibco11140-050) Na-pyruvate (Gibco 11360-070) and Re-stripped Charcoal stripped FBS (Gemini 100-119)). The cells were adjusted to a concentration of 3,000 cells per mL in the above media, and the cells were incubated (37° C., 5% CO2). The following day a 10 point, serial dilution of compounds was added to the cells at a final concentration ranging from 10-0.000005 μM for test compounds (17β-estradiol was used as a control). Additional cells were plated in 30 wells to serve as the day 1 (pretreatment) comparison. After 5 days of compound exposure, Cell Titer-Glo reagent was added to the cells and the relative luminescence units (RLUs) of each well was determined. Cell Titer-Glo was also added to 32 μL of medium without cells to obtain a background value. The plates were allowed to incubate at room temperature for 10 minutes to stabilize luminescent signal and the luminescence signal was recorded with EnSpire. The relative increase in cell number of each sample is determined as follows: (RLU sample-RLU background/RLU estrogen only treated cells-RLU background)×100=% inhibition.

ERα = target: T1, ERα (Homo sapiens, UniProt P03372); experiment: ER Degradation Determination by Western Blot; type: cell-based; conditions: MCF-7 cells, 10 μM, 18-24 hours
T1 construct: endogenous in cells; host or cells: MCF-7
T1 sequence (P03372 1-595): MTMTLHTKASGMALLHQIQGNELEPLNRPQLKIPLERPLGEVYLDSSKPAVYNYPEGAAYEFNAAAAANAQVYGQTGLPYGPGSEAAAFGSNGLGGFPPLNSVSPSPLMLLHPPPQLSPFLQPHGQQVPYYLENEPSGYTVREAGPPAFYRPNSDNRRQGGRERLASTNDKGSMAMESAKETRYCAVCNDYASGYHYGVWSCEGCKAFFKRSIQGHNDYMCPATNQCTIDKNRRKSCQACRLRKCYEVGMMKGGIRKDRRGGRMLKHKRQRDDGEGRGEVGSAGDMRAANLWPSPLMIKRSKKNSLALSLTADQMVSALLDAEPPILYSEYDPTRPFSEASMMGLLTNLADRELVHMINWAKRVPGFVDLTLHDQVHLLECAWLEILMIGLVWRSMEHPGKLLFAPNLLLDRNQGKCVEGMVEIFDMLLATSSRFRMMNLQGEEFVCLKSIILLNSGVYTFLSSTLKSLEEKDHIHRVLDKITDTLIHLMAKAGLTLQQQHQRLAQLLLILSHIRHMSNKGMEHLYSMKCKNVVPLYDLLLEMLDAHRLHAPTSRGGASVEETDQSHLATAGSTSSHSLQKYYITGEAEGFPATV
Description: ER Degradation Determination by Western Blot
MCF-7 cells are plated at 0.3 million cells/mL (3 mL/well) in 6-well plates in experiment media and incubated at 37° C., 5% CO2 for […]. Next day, 10× solution of compounds are made in DMSO and added the solution to the cells to achieve a final concentration of 10 μM. A DMSO control is included to enable a determination of the relative efficacy of test compounds. Fulvestrant is used as a positive control for ER-alpha degradation, and 4-OH tamoxifen as a control for receptor stabilization. After incubating cells with compounds for 18-24 hours, cell lysates are prepared (2× Cell lysis buffer:100 mM Tris, pH 8, 300 mM NaCl, 2% NP40, 1% Na deoxycholate, 0.04% SDS, 2 mM EDTA) and mixed thoroughly and incubated on ice. The protein concentration is quantified using BCA kit. […] The gel was then transferred onto a nitrocellulose membrane. […] GAPDH protein was used as an internal control.

[1] = Pharmacokinetic Determination (Rat PK); type: in vivo; conditions: plasma, female SD rats
Description: Example D Pharmacokinetic Determination
Grouping female SD rats weighing 200-300 g randomly to two groups; one group was administered with test compound at a dose of 3.0 mg/kg by intravenous injection, the other group was administered with test compound at a dose of 10.0 mg/kg by oral. The formulation for IV groups is DMSO/PEG400/150 mM glycine (pH 9) (5/10/85) and the formulation for PO groups is PEG400/PVP/Tween 80/0.5% CMC in water (9/0.5/0.5/90). After administering, blood samples of intravenous injection group were collected at time points of predose, 0.0833, 0.25, 0.5, 1, 2, 4, 8, 12 and 24 h; blood samples of oral group were collected at time points of predose, 0.25, 0.5, 1, 2, 4, 8, 12, and 24 h. Standard curve was plotted based on concentrations of the samples in a suitable range, the concentrations of test compounds in plasma samples were determined by using LC-MS/MS. Pharmacokinetic parameters were calculated according to drug concentration-time curve using a noncompartmental method by WinNonLin (Phoenix™, version 6.1) or other similar software.

| Compound | IC50 (MCF7) | also measured |
| --- | --- | --- |
| C[C@@H]1Cc2c([nH]c3ccccc23)[C@@H](c2c(F)cc(/C=C/C(=O)O)cc2F)N1C1CC(F)(F)C1 (single isomer, unassigned) [Example 9A] | 25 to 250 nM | ERα % degradation (ERα): A (A = ERα % degradation ≥80%) |
| CC[C@@H]1Cc2c([nH]c3ccccc23)[C@@H](c2c(F)cc(/C=C/C(=O)O)cc2F)N1C12CC(C1)C2 (single isomer, unassigned) [Example 25A] | ≥ 250 nM | – |
| C[C@H]1Cc2c([nH]c3ccc(O)cc23)[C@H](c2c(F)cc(/C=C/C(=O)O)cc2F)N1CC(C)(C)F (single isomer, unassigned) [Example 13A] | 25 to 250 nM | – |
| C[C@@H]1Cc2c(n(C)c3ccccc23)[C@@H](c2c(F)cc(/C=C/C(=O)O)cc2F)N1C12CC(C1)C2 [Example 26A, (E)-3-(4-((1R,3R)-2-(bicyclo[1.1.1]pentan-1-yl)-3,9-dimethyl-2,3,4,9-tetrahydro-1H-pyrido[3,4-b]indol-1-yl)-3,5-difluorophenyl)acrylic acid] | ≥ 250 nM | – |
| CC[C@@H]1Cc2c([nH]c3ccccc23)[C@@H](c2c(F)cc(/C=C/C(=O)O)cc2F)N1[C@@H]1CCOC1 (single isomer, unassigned) [Example 23B] | 25 to 250 nM | – |
| C[C@@H]1Cc2c([nH]c3ccccc23)[C@@H](c2c(F)cc(/C=C/C(=O)O)cc2F)N1C1CCOCC1 [Example 6A, (E)-3-(3,5-Difluoro-4-((1R,3R)-3-methyl-2-(tetrahydro-2H-pyran-4-yl)-2,3,4,9-tetrahydro-1H-pyrido[3,4-b]indol-1-yl)phenyl)acrylic acid] | – | ERα % degradation (ERα): B (B = ERα % degradation <80%) |
| O=C(O)/C=C/c1cc(F)c(C2c3[nH]c4ccccc4c3C[C@@H](C(F)F)N2C2CCOC2)c(F)c1 (stereo partly drawn) [Example 19A, (E)-3-(4-((3S)-3-(Difluoromethyl)-2-(tetrahydrofuran-3-yl)-2,3,4,9-tetrahydro-1H-pyrido[3,4-b]indol-1-yl)-3,5-difluorophenyl)acrylic acid] | ≤ 25 nM | – |
| CC/C(=C(/c1ccc(/C=C/C(=O)O)cc1)c1ccc2[nH]ncc2c1)c1ccc(F)cc1Cl [ARN810, reference compound] | ≤ 25 nM | AUC(0-inf) ([1]; IV, 3.0 mg/kg): 5.9 µM·h; clearance ([1]; IV, 3.0 mg/kg): 19 mL/min/kg; half-life ([1]; IV, 3.0 mg/kg): 4.7 h; Vd ([1]; IV, 3.0 mg/kg, read-out: Vdss): 1.2 L/kg; bioavailability ([1]; PO 10.0 mg/kg vs IV 3.0 mg/kg): 117%; AUC(0-inf) ([1]; PO, 10.0 mg/kg): 23 µM·h; Cmax ([1]; PO, 10.0 mg/kg): 6.7 µM; Tmax ([1]; PO, 10.0 mg/kg): 1 h; half-life ([1]; PO, 10.0 mg/kg): 6.9 h |
| CCC1Cc2c([nH]c3ccccc23)C(c2c(F)cc(/C=C/C(=O)O)cc2F)N1CC12CC(C1)C2 (stereo not drawn) [Example 24, (E)-3-(4-(2-(Bicyclo[1.1.1]pentan-1-ylmethyl)-3-ethyl-2,3,4,9-tetrahydro-1H-pyrido[3,4-b]indol-1-yl)-3,5-difluorophenyl)acrylic acid] | 25 to 250 nM | – |
| C[C@@H]1Cc2c([nH]c3ccccc23)[C@@H](c2c(F)cc(/C=C/C(=O)O)cc2F)N1CC1COC1 [Example 17A] | 25 to 250 nM | – |
| C[C@@H]1Cc2c([nH]c3ccc(O)cc23)[C@@H](c2c(F)cc(/C=C/C(=O)O)cc2F)N1CC(C)(C)F (single isomer, unassigned) [Example 13B] | ≤ 25 nM | ERα % degradation (ERα): B (B = ERα % degradation <80%) |
| C[C@@H]1Cc2c([nH]c3ccccc23)[C@@H](c2c(F)cc(/C=C/C(=O)O)cc2F)N1C12CC(C(F)(F)F)(C1)C2 (single isomer, unassigned) [Example 4A] | 25 to 250 nM | ERα % degradation (ERα): A (A = ERα % degradation ≥80%) |
| C[C@@H]1Cc2c([nH]c3ccccc23)[C@@H](c2c(F)cc(/C=C/C(=O)O)cc2F)N1CC12CC(F)(C1)C2 [Example 14A, (E)-3-(3,5-Difluoro-4-((1R,3R)-2-((3-fluorobicyclo[1.1.1]pentan-1-yl)methyl)-3-methyl-2,3,4,9-tetrahydro-H-pyrido[3,4-b]indol-1-yl)phenyl)acrylic acid] | 25 to 250 nM | ERα % degradation (ERα): B (B = ERα % degradation <80%) |
| CC[C@@H]1Cc2c([nH]c3ccccc23)[C@@H](c2c(F)cc(/C=C/C(=O)O)cc2F)N1[C@H]1CCOC1 (single isomer, unassigned) [Example 23A] | ≤ 25 nM | – |
| CC1(C)Cc2c([nH]c3ccccc23)C(c2c(F)cc(/C=C/C(=O)O)cc2F)N1CC12CC(C1)C2 (stereo not drawn) [Example 22, (E)-3-(4-(2-(Bicyclo[1.1.1]pentan-1-ylmethyl)-3,3-dimethyl-2,3,4,9-tetrahydro-1H-pyrido[3,4-b]indol-1-yl)-3,5-difluorophenyl)acrylic acid] | 25 to 250 nM | – |
| C[C@@H]1Cc2c([nH]c3cc(O)ccc23)[C@@H](c2c(F)cc(/C=C/C(=O)O)cc2F)N1CC(C)(C)F [Example 15A, (E)-3-(3,5-Difluoro-4-((1R,3R)-2-(2-fluoro-2-methylpropyl)-7-hydroxy-3-methyl-2,3,4,9-tetrahydro-1H-pyrido[3,4-b]indol-1-yl)phenyl)acrylic acid] | ≤ 25 nM | – |
| C[C@@H]1Cc2c([nH]c3ccccc23)[C@@H](c2c(F)cc(/C=C/C(=O)O)cc2F)N1CC1(C)COC1 [Example 18A, (E)-3-(3,5-Difluoro-4-((1R,3R)-3-methyl-2-((3-methyloxetan-3-yl)methyl)-2,3,4,9-tetrahydro-1H-pyrido[3,4-b]indol-1-yl)phenyl)acrylic acid] | ≤ 25 nM | – |
| [2H][C@@]1(c2c(F)cc(/C=C/C(=O)O)cc2F)c2[nH]c3ccccc3c2C[C@@H](C)N1C12CC(C1)C2 [Example 11D, (E)-3-(4-((1R,3R)-2-(Bicyclo[1.1.1]pentan-1-yl)-3-methyl-2,3,4,9-tetrahydro-1H-pyrido[3,4-b]indol-1-yl-1-d)-3,5-difluorophenyl)acrylic acid] | ≤ 25 nM | – |
| C[C@@H]1Cc2c([nH]c3ccccc23)[C@H](c2c(F)cc(/C=C/C(=O)O)cc2F)N1C12CC(C1)C2 [Example 11C, (E)-3-(4-((1S,3R)-2-(Bicyclo[1.1.1]pentan-1-yl)-3-methyl-2,3,4,9-tetrahydro-1H-pyrido[3,4-b]indol-1-yl)-3,5-difluorophenyl)acrylic acid] | ≥ 250 nM | – |
| C[C@]12CC[C@@H]3c4ccc(O)cc4C[C@@H](CCCCCCCCC[S+]([O-])CCCC(F)(F)C(F)(F)F)[C@H]3[C@@H]1CC[C@@H]2O (stereo partly drawn) [fulvestrant, reference compound] | ≤ 25 nM | ERα % degradation (ERα): A (A = ERα % degradation ≥80%) |
| CC[C@H]1Cc2c([nH]c3ccccc23)[C@H](c2c(F)cc(/C=C/C(=O)O)cc2F)N1C12CC(C1)C2 (single isomer, unassigned) [Example 25B] | ≤ 25 nM | – |
| C[C@@H]1Cc2c([nH]c3ccccc23)[C@@H](c2c(F)cc(/C=C/C(=O)O)cc2F)N1CC1(F)COC1 [Example 16A, (E)-3-(3,5-Difluoro-4-((1R,3R)-2-((3-fluorooxetan-3-yl)methyl)-3-methyl-2,3,4,9-tetrahydro-1H-pyrido[3,4-b]indol-1-yl)phenyl)acrylic acid] | ≤ 25 nM | – |
